Experimental data published in ChEMBL document CHEMBL4364281, “Design of wogonin-inspired selective cyclin-dependent kinase 9 (CDK9) inhibitors with potent in vitro and in vivo antitumor activity” (Eur J Med Chem, 2019).
pIC50: −log10 of the molar value. ≈ marks a conversion by molar mass, not a printed value. Calls of active or inactive are those of the source. The rule behind the calls is not given here.

Tests used:
HepG2 = test: cells; conditions: Homo sapiens, HepG2, 72 h
Description: Antiproliferative activity against human HepG2 cells assessed as reduction in cell viability after 72 hrs by MTT assay

MV4-11 [1] = test: Antitumor activity against human MV4-11 cells xenografted in BALB/c mouse assessed as reduction in tumour growth at 5 mg/kg, iv administered every other day for 21 days; format: functional, organism-based
CDK9/cyclin T1 = CDK9/cyclin T1 (Homo sapiens, UniProt P50750)
HCT-116 = test: cells; conditions: Homo sapiens, HCT-116, 72 h
Description: Antiproliferative activity against human HCT116 cells assessed as reduction in cell viability after 72 hrs by MTT assay

MV4-11 [2] = test: cells; conditions: Homo sapiens, MV4-11, 72 h
Description: Antiproliferative activity against human MV4-11 cells assessed as reduction in cell viability after 72 hrs by MTT assay

CDK2/Cyclin A2 [3] = biological target: CDK2/Cyclin A2 (Homo sapiens, UniProt P24941+P20248)
Description: (§1) Inhibition of human CDK2/cyclin-A2 using H1 histone as substrate after 2 hrs by [gamma-33P]-ATP assay

A549 = test: cells; conditions: Homo sapiens, A549, 72 h
Description: Antiproliferative activity against human A549 cells assessed as reduction in cell viability after 72 hrs by MTT assay

CDK2/Cyclin A2 [4] = biological target: CDK2/Cyclin A2 (Homo sapiens, UniProt P24941)
Description: as §1

physchem [5] = test: physchem
Description: Intrinsic solubility of compound by potentiometric titration assay

physchem [6] = conditions: buffer, pH 7.4
Description: Hydrophobicity, log D of compound at pH 7.4

physchem [7] = conditions: methanesulfonic acid buffer, pH 4.5
Description: Solubility of compound in methanesulfonic acid buffer at pH 4.5

CDK9/cyclin T1, sequence (O60563 whole entry): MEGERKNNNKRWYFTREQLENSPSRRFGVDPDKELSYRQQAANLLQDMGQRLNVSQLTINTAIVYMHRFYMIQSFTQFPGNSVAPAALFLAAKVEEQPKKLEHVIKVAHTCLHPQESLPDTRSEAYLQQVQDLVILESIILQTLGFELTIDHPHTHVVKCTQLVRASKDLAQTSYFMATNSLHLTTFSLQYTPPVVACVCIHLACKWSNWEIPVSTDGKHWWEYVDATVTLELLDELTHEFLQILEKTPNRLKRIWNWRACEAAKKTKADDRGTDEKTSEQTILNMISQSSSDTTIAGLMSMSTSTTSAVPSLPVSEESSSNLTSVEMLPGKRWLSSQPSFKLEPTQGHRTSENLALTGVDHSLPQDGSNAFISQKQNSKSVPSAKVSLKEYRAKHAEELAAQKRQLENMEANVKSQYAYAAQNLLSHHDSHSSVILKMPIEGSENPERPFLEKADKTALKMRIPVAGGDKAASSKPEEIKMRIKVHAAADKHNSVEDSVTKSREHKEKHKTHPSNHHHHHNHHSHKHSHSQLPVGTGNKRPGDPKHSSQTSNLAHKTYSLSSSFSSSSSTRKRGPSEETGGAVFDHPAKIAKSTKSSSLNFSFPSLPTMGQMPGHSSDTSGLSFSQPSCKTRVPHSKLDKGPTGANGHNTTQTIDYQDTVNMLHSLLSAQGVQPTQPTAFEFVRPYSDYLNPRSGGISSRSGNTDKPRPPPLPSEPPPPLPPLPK
CDK9/cyclin T1, sequence (P50750 whole entry): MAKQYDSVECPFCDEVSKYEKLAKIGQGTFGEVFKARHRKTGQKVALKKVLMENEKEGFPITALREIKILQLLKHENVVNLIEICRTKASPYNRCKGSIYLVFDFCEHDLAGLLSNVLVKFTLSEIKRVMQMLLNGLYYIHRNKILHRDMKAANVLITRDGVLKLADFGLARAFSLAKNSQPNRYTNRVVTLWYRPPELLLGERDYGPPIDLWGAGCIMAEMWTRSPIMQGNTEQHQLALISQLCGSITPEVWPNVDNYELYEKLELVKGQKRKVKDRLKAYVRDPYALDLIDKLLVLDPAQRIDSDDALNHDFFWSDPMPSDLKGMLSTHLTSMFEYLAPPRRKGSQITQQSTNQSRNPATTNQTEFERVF

Row | pIC50 (HepG2) | SMILES | other results
1 | 5.15 | CN1CCN(c2ccc(-c3cc(=O)c4c(O)cc(O)c(OCc5ccco5)c4o3)cc2)CC1 | –
2 | 5.00 | COc1c(O)cc(O)c2c(=O)cc(-c3cccc(N4CCNCC4)c3)oc12 | –
3 | 4.56 | CN1CCN(c2ccc(-c3cc(=O)c4c(O)cc(O)c(OC5CCCCC5)c4o3)cc2)CC1 | –
4 | 5.17 | CN1CCC(Oc2c(O)cc(O)c3c(=O)cc(-c4ccc(N5CCN(C)CC5)cc4)oc23)CC1 | –
5 | < 4.00 | O=c1cc(-c2ccc(N3CCNCC3)cc2)oc2c(OC3CCNC3)c(O)cc(O)c12 (stereo not given) | –
6 | < 4.00 | COc1c(O)cc(O)c2c(=O)cc(-c3ccccc3C(F)(F)F)oc12 | –
7 | < 4.00 | COc1c(O)cc(O)c2c(=O)cc(-c3ccc([N+](=O)[O-])cc3)oc12 | –
8 | < 4.00 | COc1c(O)cc(O)c2c(=O)cc(-c3ccccc3Cl)oc12 | –
9 | 4.80 | CN1CCN(c2ccc(-c3cc(=O)c4c(O)cc(O)c(OC5CCCC5)c4o3)cc2)CC1 | –
10 | 4.11 | COc1c(O)cc(O)c2c(=O)cc(-c3ccc(N4CCOCC4)cc3)oc12 | –
11 | 5.28 | O=c1cc(-c2ccc(N3CCNCC3)cc2)oc2c(OC3CCCC3)c(O)cc(O)c12 | –
12 | 4.64 | O=c1cc(-c2ccc(N3CCNCC3)cc2)oc2c(OC3CCCCC3)c(O)cc(O)c12 | –
13 | 5.09 | CN1CCN(c2ccc(-c3cc(=O)c4c(O)cc(O)c(Oc5c[nH][nH]c5=O)c4o3)cc2)CC1 | –
14 | < 4.00 | COc1c(O)cc(O)c2c(=O)cc(-c3cccc(N4CCOCC4)c3)oc12 | –
15 | < 4.00 | COc1c(O)cc(O)c2c(=O)cc(-c3ccc(N4CCCC4)cc3)oc12 | –
16 | 4.42 | COc1c(O)cc(O)c2c(=O)cc(-c3cccc(Br)c3)oc12 | –

Row | pIC50 (HepG2) | SMILES | other results
17 | – | COc1cccc2c1C(=O)c1c(O)c3c(c(O)c1C2=O)C[C@@](O)(C(=O)CO)C[C@@H]3O[C@H]1C[C@H](N)[C@H](O)[C@H](C)O1 | inhibition (MV4-11 [1]): Active
18 | 5.08 | O=c1cc(-c2ccc(N3CCNCC3)cc2)oc2c(OCc3ccco3)c(O)cc(O)c12 | –
19 | < 4.00 | CN1CCN(c2ccc(-c3cc(=O)c4c(O)cc(O)c(OC5CCNC5)c4o3)cc2)CC1 (stereo not given) | –
20 | 5.19 | CCN(CC)c1ccc(-c2cc(=O)c3c(O)cc(O)c(OC)c3o2)cc1 | –
21 | 5.18 | COc1c(O)cc(O)c2c(=O)cc(-c3ccc(N4CCN(C)CC4)cc3)oc12 | –
22 | < 4.00 | COc1c(O)cc(O)c2c(=O)cc(-c3cccc(C(F)(F)F)c3)oc12 | –
23 | 4.75 | COc1c(O)cc(O)c2c(=O)cc(-c3ccc(N4CCNCC4)cc3)oc12 | –
24 | 4.40 | CN1CCC(Oc2c(O)cc(O)c3c(=O)cc(-c4ccc(N5CCNCC5)cc4)oc23)CC1 | –
25 | 4.83 | CC(C)Oc1c(O)cc(O)c2c(=O)cc(-c3ccc(N4CCN(C)CC4)cc3)oc12 | pIC50 (CDK9/cyclin T1): 6.75; pIC50 (HCT-116): 4.89; pIC50 (MV4-11 [2]): 5.20; IC50 (CDK2/Cyclin A2 [3]): Not Active; pIC50 (A549): 5.39
26 | 5.20 | Cc1n[nH]c(C)c1Oc1c(O)cc(O)c2c(=O)cc(-c3ccc(N4CCN(C)CC4)cc3)oc12 | pIC50 (CDK9/cyclin T1): 7.90; pIC50 (HCT-116): 5.48; pIC50 (CDK2/Cyclin A2 [4]): 6.08; pIC50 (MV4-11 [2]): 5.66; pIC50 (A549): 5.60
27 | 4.74 | CC(C)Oc1c(O)cc(O)c2c(=O)cc(-c3ccc(N4CCNCC4)cc3)oc12 | pIC50 (CDK9/cyclin T1): 7.03; pIC50 (HCT-116): 5.47; pIC50 (MV4-11 [2]): 5.21; IC50 (CDK2/Cyclin A2 [3]): Not Active; pIC50 (A549): 5.26
28 | 4.47 | COc1c(O)cc(O)c2c(=O)cc(-c3ccccc3Br)oc12 | –
29 | 4.88 | COc1c(O)cc(O)c2c(=O)cc(-c3cccc(N4CCN(C)CC4)c3)oc12 | –
30 | 4.74 | COc1c(O)cc(O)c2c(=O)cc(-c3ccc(N4CCCNCC4)cc3)oc12 | –
31 | 4.66 | COc1c(O)cc(O)c2c(=O)cc(-c3cccc(N4CCCNCC4)c3)oc12 | –
32 | 5.07 | Cc1n[nH]c(C)c1Oc1c(O)cc(O)c2c(=O)cc(-c3ccc(N4CCNCC4)cc3)oc12 | pIC50 (CDK9/cyclin T1): 7.97; pIC50 (HCT-116): 5.32; solubility (physchem [5]): 1 µg/mL (≈ 2.23 µM); pIC50 (CDK2/Cyclin A2 [4]): 5.98; logD (physchem [6]): 2.91; pIC50 (MV4-11 [2]): 5.36; pIC50 (A549): 5.26; solubility (physchem [7]): 30 µg/mL (≈ 66.9 µM)
